# Source: patent publication US20160312240A1, “MODIFIED PYR/PYL RECEPTORS ACTIVATED BY ORTHOGONAL LIGANDS” (The Regents of the University of California, priority 2010, published 2016)
# Key:
# [1] = biological target: T1, PYR1 mutant 27-18 (Arabidopsis thaliana, UniProt O49686, K59R/S47P/Y120H); test: Yeast two-hybrid LacZ reporter assay (pAD-HAB1 YRG-2 strain); assay type: cell-based; settings: 1, 5, 10, 25, and 50 μM
# T1 construct: expressed in transfected cells; host or cells: S. cerevisiae YRG-2 expressing pAD-HAB1
# Method: (§1) Plasmids for three representative mutant clones (27-9, 27-18, and 27-36) were isolated from the primary yeast cells and transformed into a pAD-HAB1 expressing YRG-2 reporter strain (Park et al., Science 324:1068-1071 (2009)) in which Ga14 drives expression of a LacZ reporter gene to allow colorimetric indication of agonist response. Fenhexamid was applied at concentrations of 1, 5, 10, 25, and 50 μM. […] Mutant 27-36 was responsive to fenhexamid at 25 and 50 μM concentrations.
# [2] = biological target: T2, PYR1 mutant 27-36 (Arabidopsis thaliana, UniProt O49686, E12G/E43G/I110S/K59R/N133D); test: as above; assay type: cell-based; settings: 25 and 50 μM (applied 1-50 μM)
# T2 construct: expressed in transfected cells; host or cells: S. cerevisiae YRG-2 expressing pAD-HAB1
# Method: as §1
# [3] = biological target: T3, PYR1 mutant 27-9 (Arabidopsis thaliana, UniProt O49686, E153G/K59R/P42S/Y120C); test: as above; assay type: cell-based
# T3 construct: expressed in transfected cells; host or cells: S. cerevisiae YRG-2 expressing pAD-HAB1
# Method: as §1
# [4] = biological target: T4, PYL2 K64R,Y124H,M164I,V67I,V114I (Arabidopsis thaliana, UniProt O80992, K64R/M164I/V114I/V67I/Y124H); test: In vitro PP2C inhibition assay, 2:1 receptor to phosphatase; assay type: biochemical; settings: FIG. 3B
# T4 construct: expressed in transfected cells; host or cells: Saccharomyces cerevisiae Y190 pAD-HAB1
# Method: (§2) FIGS. 3A-3B. […] FIG. 3A. […] In addition, pocket residue mutations at V114I and/or V67I were introduced. The mutants (listed on left side of panel) were constructed in pBD-PYL2 and transformed into Y190 pAD-HAB1 yeast cells. The transformants were then grown on increasing concentrations of fenhexamid and scored for responsiveness using X-gal staining, performed as described in Park et al., 2009. […] FIG. 3B. In vitro characterization of PYL2 K64R, Y124H, M164I, V67I, V114I mutant. Recombinant wild-type and mutant PYL2 proteins were produced as described previously and used in PP2C assays, as described previously (Park et al., 2009), with the exception that a 2:1 ratio of receptor for phosphatase was used.
# (§3) PYR1 is a member of the PYR/PYL receptor protein family, which in Arabidopsis contains 14 members. […] Given the conserved nature of these residues, we speculated that fenhexamid sensitivity could be engineered into other receptor family members by mutating homologous residues in other PYR/PYL receptors. To test this, we introduced the homologous mutations in PYL2 (K64R, corresponding to K59R in PYR1; Y124H, corresponding to Y120H in PYR1; and M164I, corresponding to M158I in PYR1), creating the mutant PYL2^K64R,Y124H,M164I. […]
# [5] = biological target: T4, PYL2 K64R,Y124H,M164I,V67I,V114I; test: Yeast two-hybrid assay, strain Y190 pAD-HAB1, X-gal staining; assay type: cell-based; settings: FIG. 3A
# Method: as §2, §3
# [6] = biological target: T5, PYL2 K64R,Y124H,M164I (Arabidopsis thaliana, UniProt O80992, K64R/M164I/Y124H); test: as above; assay type: cell-based; settings: FIG. 3A
# T5 construct: expressed in transfected cells; host or cells: Saccharomyces cerevisiae Y190 pAD-HAB1
# Method: as §2, §3
# [7] = tested on: PYR/PYL-PP2C protein-protein interactions; test: Yeast competition screen: reduction of ABA-promoted PYR/PYL-PP2C interaction; assay type: cell-based; settings: 100 nM ABA and 100 μM test chemical (1000-fold excess), yeast strains
# Source text: To isolate PYR1 orthogonal receptors, a two-step process was used. First, a large collection of compounds was screened to identify compounds that weakly interact with receptors, defined as such by their ability to displace receptor-bound ABA in competition experiments. Once weak binders were identified, those with the most desirable properties from an end-use perspective were used as targets for iterative mutagenesis and selection schemes. Pre-selection of weak-binding ligands improves the frequency of isolating new receptor proteins, because fewer alterations of the ligand binding site are required to achieve molecular recognition. However, pre-selection is not a prerequisite for success.
# Pre-selection of ligands. 74 structurally diverse agrochemicals were obtained, selected from a larger set of approximately 1500 commercially available agrochemicals. These 74 compounds were tested for their ability to reduce ABA-promoted PYR/PYL-PP2C protein-protein interactions in suitable yeast strains when added at 1000-fold excess relative to ABA (i.e. 100 nM ABA and 100 μM test chemical).
# [8] = tested on: PYR1 variants 27C-1, 27C-2, 27C-3, 27C-5, 27C-16, 27C-18, 27C-19, 27C-20, 27C-21 (Table 8); test: MAV99 growth selection, third round of shuffling; assay type: cell-based, Arabidopsis; settings: 1.5 μM fenhexamid; media lacking uracil; Table 8 variants
# Method: A third round of shuffling was conducted by combining DNA for the “27B′” mutants shown in Table 7 and ePCR1 library to create a library of ˜150,000 clones which was then transformed into MAV99 pAD-HAB 1. Constitutive mutants were then depleted by growth on FOA after which fenhexamid sensitive mutants were selected by growth on media lacking uracil but containing 1.5 μM fenhexamid, using the methods described above.
# T4 sequence (Q9CAJ0 23-511): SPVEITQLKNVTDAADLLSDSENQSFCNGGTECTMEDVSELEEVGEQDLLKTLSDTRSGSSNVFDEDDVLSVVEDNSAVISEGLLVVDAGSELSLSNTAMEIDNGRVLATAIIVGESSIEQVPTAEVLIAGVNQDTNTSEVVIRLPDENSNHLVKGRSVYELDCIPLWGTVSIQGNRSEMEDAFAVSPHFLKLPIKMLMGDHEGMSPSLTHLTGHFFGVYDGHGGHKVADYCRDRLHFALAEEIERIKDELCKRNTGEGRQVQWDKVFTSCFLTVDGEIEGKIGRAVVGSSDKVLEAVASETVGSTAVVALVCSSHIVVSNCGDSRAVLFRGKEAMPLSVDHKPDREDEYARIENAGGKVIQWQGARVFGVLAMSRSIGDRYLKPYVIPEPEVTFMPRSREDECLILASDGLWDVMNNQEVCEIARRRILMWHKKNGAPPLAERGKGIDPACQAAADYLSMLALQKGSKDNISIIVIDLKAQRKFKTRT
# T4 sequence (O80992 whole entry K64R/V67I/V114I/Y124H/M164I): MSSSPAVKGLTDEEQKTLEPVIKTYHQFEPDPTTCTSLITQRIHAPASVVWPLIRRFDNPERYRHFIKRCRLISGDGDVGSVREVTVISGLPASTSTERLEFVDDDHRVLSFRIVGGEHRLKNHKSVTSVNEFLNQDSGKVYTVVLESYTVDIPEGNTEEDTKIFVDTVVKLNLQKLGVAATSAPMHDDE
# T3 sequence (O49686 whole entry P42S/K59R/Y120C/E153G): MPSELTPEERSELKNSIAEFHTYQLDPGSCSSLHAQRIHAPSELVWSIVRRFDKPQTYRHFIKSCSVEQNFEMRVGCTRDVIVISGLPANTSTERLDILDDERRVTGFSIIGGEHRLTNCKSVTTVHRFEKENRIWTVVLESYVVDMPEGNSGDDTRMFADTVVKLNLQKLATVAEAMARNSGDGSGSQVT
# T3 sequence (Q9CAJ0 whole entry, further chain): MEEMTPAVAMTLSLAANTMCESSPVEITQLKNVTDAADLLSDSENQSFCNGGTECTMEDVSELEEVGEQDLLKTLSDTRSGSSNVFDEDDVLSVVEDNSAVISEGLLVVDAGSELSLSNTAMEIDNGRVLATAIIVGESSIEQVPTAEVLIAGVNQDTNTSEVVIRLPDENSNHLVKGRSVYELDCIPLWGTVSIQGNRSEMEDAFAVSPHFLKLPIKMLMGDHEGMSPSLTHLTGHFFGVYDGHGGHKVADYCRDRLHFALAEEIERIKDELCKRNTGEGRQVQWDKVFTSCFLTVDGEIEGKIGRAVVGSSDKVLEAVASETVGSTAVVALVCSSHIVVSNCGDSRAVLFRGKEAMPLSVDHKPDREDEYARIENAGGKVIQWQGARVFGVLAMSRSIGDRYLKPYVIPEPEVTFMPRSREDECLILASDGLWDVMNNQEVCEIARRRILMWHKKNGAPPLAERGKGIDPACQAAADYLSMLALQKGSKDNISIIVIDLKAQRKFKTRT
# T1 sequence (O49686 whole entry S47P/K59R/Y120H): as the sequence (O49686 whole entry P42S/K59R/Y120C/E153G) above, with S42P, S47P, C120H, G153E counted along it
# T1 sequence (Q9CAJ0 23-511, stated change not applied, further chain): as the sequence (Q9CAJ0 23-511) above
# T2 sequence (Q9CAJ0 23-511): as above
# T2 sequence (O49686 whole entry E12G/E43G/K59R/I110S/N133D): as the sequence (O49686 whole entry P42S/K59R/Y120C/E153G) above, with E12G, S42P, E43G, I110S, C120Y, N133D, G153E counted along it
# T5 sequence (O80992 whole entry K64R/Y124H/M164I): as the sequence (O80992 whole entry K64R/V67I/V114I/Y124H/M164I) above, with I67V, I114V counted along it
compound,measurement,setting,value
CC1(C(=O)Nc2ccc(O)c(Cl)c2Cl)CCCCC1 [fenhexamid],Response to fenhexamid (LacZ staining),[1],strongly responded
same,Response to fenhexamid (LacZ staining),[2],responsive
same,Response to fenhexamid (LacZ staining),[3]; 1 μM,weakly positive
same,Response to fenhexamid (LacZ staining),"[3]; 5, 10, 25, and 50 μM",strongly responded
same,Response to fenhexamid in in vitro PP2C inhibition assays,[4],respond
same,Response to fenhexamid in yeast assays,[5],respond
same,fenhexamid responsiveness (yeast two-hybrid),[6],does not show fenhexamid responsiveness
same,ability to reduce ABA-promoted PYR/PYL-PP2C protein-protein interactions,[7],compete for ABA
same,Growth in response to fenhexamid (selection),[8],fenhexamid responsive
